From the NIST ThermoML archive (doi:10.1021/je7003758)

Settings: Liquid

CN1CCCC1=O [N-methylpyrrolidone]
mass density [kg/m3]
Settings	288.15 K	298.15 K	308.15 K	318.15 K
100 kPa	1036.8	1028	1019.3	1011
500 kPa	1036.9	1028.1	1019.5	1011.1
1000 kPa	1037.2	1028.4	1019.8	1011.4
1500 kPa	1037.4	1028.7	1020	1011.7
2000 kPa	1037.7	1028.9	1020.3	1012.1
2500 kPa	1037.9	1029.2	1020.6	1012.4
3000 kPa	1038.2	1029.4	1020.9	1012.7
3500 kPa	1038.4	1029.7	1021.1	1012.9
4000 kPa	1038.7	1030	1021.4	1013.2
4500 kPa	1038.9	1030.2	1021.6	1013.5
5000 kPa	1039.2	1030.5	1021.8	1013.8
5500 kPa	1039.4	1030.7	1022.2	1014
5900 kPa	–	1031	–	–
6000 kPa	1039.6	–	1022.4	1014.4
6400 kPa	–	–	1022.6	–
6500 kPa	1039.9	1031.3	–	1014.6
6900 kPa	–	1031.5	–	–
7000 kPa	1040.2	–	–	1014.9
7100 kPa	–	–	1023	–
7500 kPa	1040.4	1031.8	1023.1	1015.2
8000 kPa	1040.7	1032	–	1015.5
8100 kPa	–	–	1023.5	–
8500 kPa	1041	1032.3	1023.7	1015.8
9000 kPa	1041.2	1032.5	1024	1016
9500 kPa	1041.4	–	1024.3	1016.3
9600 kPa	–	1032.9	–	–
10000 kPa	1041.7	1033.1	1024.6	1016.6
10400 kPa	–	–	1024.8	–
10500 kPa	1042	1033.3	–	1016.9
11000 kPa	1042.2	1033.6	–	1017.3
11100 kPa	–	–	1025.1	–
11400 kPa	–	–	–	1017.6
11500 kPa	1042.5	1033.8	1025.3	–
12000 kPa	–	1034.1	1025.5	1017.8
12100 kPa	1042.7	–	–	–
12500 kPa	1042.9	1034.3	1025.8	1018
12900 kPa	–	–	–	1018.3
13000 kPa	1043.1	1034.6	1026	–
13500 kPa	1043.4	1034.8	1026.3	1018.5
14000 kPa	1043.6	1035.1	1026.5	1018.8
14400 kPa	–	1035.3	–	–
14500 kPa	1043.8	–	1026.8	1019.1
14900 kPa	–	1035.5	–	–
15000 kPa	1044.1	–	1027	1019.4
15500 kPa	1044.3	1035.8	1027.3	1019.7
16000 kPa	1044.5	1036	1027.5	1019.9
16500 kPa	1044.8	1036.3	1027.7	1020.2
17000 kPa	1045	1036.5	1028	1020.4
17500 kPa	1045.2	1036.7	1028.3	1020.7
17900 kPa	–	1037	–	–
18000 kPa	1045.4	–	1028.5	1021
18500 kPa	–	1037.2	1028.7	1021.3
18600 kPa	1045.7	–	–	–
19000 kPa	1046	1037.4	1029	1021.5
19500 kPa	1046.2	1037.7	1029.2	–
19600 kPa	–	–	–	1021.9
20000 kPa	1046.4	1037.9	1029.4	1022
